Assay results reported in ChEMBL document CHEMBL1130640, “Lactate cannot substitute for alanine in d4T-based anti-HIV nucleotide prodrugs--despite efficient esterase-mediated hydrolysis” (Bioorg Med Chem Lett, 1998).
Each block holds one molecule with its values, some of them ahead of it.

Key:
Conditions in all cases: Homo sapiens
CEM-TK(-) [1] = experiment: Compound was tested for anti-HIV-2 activity in CEM/TK- cell line.; type: functional, cell-based
CCRF-CEM [2] = experiment: Compound was tested for anti-HIV-2 activity in CEM/0 cell line.; type: functional, cell-based
CCRF-CEM [3] = experiment: Compound was tested for anti-HIV-1 activity in CEM/0 cell line.; type: functional, cell-based
CCRF-CEM [4] = experiment: Compound was tested for cytostatic activity in CEM cell line.; type: functional
CEM-TK(-) [5] = experiment: Compound was tested for anti-HIV-2 activity in CEM/TK- cell line; type: functional, cell-based
CCRF-CEM [6] = experiment: Compound was tested for anti-HIV-1 activity in CEM/0 cell line; type: functional, cell-based
CCRF-CEM [7] = experiment: Compound was tested for cytostatic activity in CEM cell line; type: functional
CCRF-CEM [8] = experiment: Compound was tested for anti-HIV-2 activity in CEM/0 cell line; type: functional, cell-based

SMILES: CCOC(=O)C(C)OP(=O)(OCC1C=CC(n2cc(C)c(=O)[nH]c2=O)O1)Oc1ccccc1 (centres undefined)
- EC50 (CEM-TK(-) [1]): 160 µM
- EC50 (CCRF-CEM [2]): 23 µM
- EC50 (CCRF-CEM [3]): 28 µM
- CC50 (CCRF-CEM [4]): > 250 µM

SMILES: CCOC(=O)COP(=O)(OCC1C=CC(n2cc(C)c(=O)[nH]c2=O)O1)Oc1ccccc1 (centres undefined)
- EC50 (CEM-TK(-) [1]): 150 µM
- EC50 (CCRF-CEM [2]): 12.5 µM
- EC50 (CCRF-CEM [3]): 12.5 µM
- CC50 (CCRF-CEM [4]): ≥ 250 µM

SMILES: COC(=O)C(C)OP(=O)(OCC1C=CC(n2cc(C)c(=O)[nH]c2=O)O1)Oc1ccccc1 (centres undefined)
- EC50 (CEM-TK(-) [1]): > 250 µM
- EC50 (CCRF-CEM [2]): 5 µM
- EC50 (CCRF-CEM [3]): 4 µM
- CC50 (CCRF-CEM [4]): ≥ 250 µM

SMILES: COC(=O)COP(=O)(OCC1C=CC(n2cc(C)c(=O)[nH]c2=O)O1)Oc1ccccc1 (centres undefined)
- EC50 (CEM-TK(-) [1]): > 250 µM
- EC50 (CCRF-CEM [2]): 50 µM
- EC50 (CCRF-CEM [3]): 27.5 µM
- CC50 (CCRF-CEM [4]): > 250 µM

SMILES: COC(=O)C(C)NP(=O)(OC[C@@H]1C=C[C@H](n2cc(C)c(=O)[nH]c2=O)O1)Oc1ccccc1 (some centres undefined)
- EC50 (CEM-TK(-) [1]): 0.075 µM
- CC50 (CCRF-CEM [4]): > 100 µM

- EC50 (CEM-TK(-) [1]): 7 µM
SMILES: COC(=O)CNP(=O)(OCC1C=CC(n2cc(C)c(=O)[nH]c2=O)O1)Oc1ccccc1 (centres undefined)
- CC50 (CCRF-CEM [4]): ≥ 250 µM

- EC50 (CEM-TK(-) [5]): > 100 µM
- EC50 (CCRF-CEM [6]): 0.25 µM
- EC50 (CCRF-CEM [8]): 1.2 µM
SMILES: Cc1cn([C@H]2C=C[C@@H](CO)O2)c(=O)[nH]c1=O [STAVUDINE]
- CC50 (CCRF-CEM [7]): > 100 µM
